The source of these data is ChEMBL document CHEMBL3351607, “Derivatives of imidazotriazine and pyrrolotriazine C-nucleosides as potential new anti-HCV agents” (Bioorg Med Chem Lett, 2014).

Data set [1] can be described thus: Cytotoxicity against human HuH7 cells. The data set is classed as cell-based, Huh-7.
Another data set relates to Hepatitis C virus. The data set can be described thus: Antiviral activity against Hepatitis C virus genotype 1b in human HuH7 cells assessed as inhibition of viral replication after 72 hrs by luciferase reporter assay. The data set is classed as functional, cell-based, Hepacivirus hominis. Conditions: Huh-7, 72 h. (A reporter such as luciferase makes a cellular process visible.)

A short description of data set [2]: Therapeutic index, ratio of CC50 for human HuH7 cells to EC50 for Hepatitis C virus genotype 1b in human HuH7 cells. The data set is classed as cell-based, Huh-7. As to conditions: read-out: Ratio CC50/EC50.

SMILES strings stand for the structures.

A word on the CC50: it is the concentration at which the toxic effect on the cells reaches its halfway point. By EC50 is commonly meant the concentration needed to bring the measured effect to its halfway point. Compound `C[C@@]1(O)[C@H](O)[C@@H](CO)O[C@H]1c1cc(C#N)c2c(N)ncnn12` displayed a 50% cytotoxic concentration (CC50) in data set [1] of 22.1 µM. The EC50 with Hepatitis C virus was found to be 0.99 µM.

Consider `C[C@@]1(O)[C@H](O)[C@@H](CO)O[C@H]1c1ccc2c(N)nc(N)nn12`, for which the CC50 in data set [1] was over 100 µM. For the same compound, the EC50 in the data set on Hepatitis C virus was over 50 µM.

`C[C@@]1(O)[C@H](O)[C@@H](CO)O[C@H]1c1cc(C(N)=O)c2c(N)ncnn12` came in with a CC50 in data set [1] of 0.37 µM. The EC50 in the data set with Hepatitis C virus turned out to be 0.0062 µM.

Compound `C[C@@]1(O)[C@H](O)[C@@H](CO)O[C@H]1c1cc(-c2ncc[nH]2)c2c(N)ncnn12` returned a CC50 in data set [1] of 27.1 µM. For the same compound, the EC50 with Hepatitis C virus stood at 0.69 µM.

Turning to `C[C@@]1(O)[C@H](O)[C@@H](CO)O[C@H]1c1cnc2c(N)ncnn12`, the CC50 in data set [1] worked out at 26 µM.

The compound `C[C@@]1(O)[C@H](O)[C@@H](CO)O[C@H]1c1cc(F)c2c(N)ncnn12` yielded a CC50 in data set [1] of over 100 µM. The EC50 in the data set with Hepatitis C virus is 3.1 µM. In addition, the selectivity ratio in data set [2] is over 30.

`C#Cc1cc([C@@H]2O[C@H](CO)[C@@H](O)[C@@]2(C)O)n2ncnc(N)c12` displayed a CC50 in data set [1] of 0.93 µM. Also, the 50% effective concentration (EC50) in the data set with Hepatitis C virus turned out to be 0.17 µM.

Regarding `C[C@@]1(O)[C@H](O)[C@@H](CO)O[C@H]1c1ccc2c(N)ncnn12`, the CC50 in data set [1] is over 100 µM.

In data set [1], `C[C@@]1(O)[C@H](O)[C@@H](CO)O[C@H]1c1cnc2c(N)nc(N)nn12` had a CC50 of over 100 µM. For the same compound, the EC50 in the data set on Hepatitis C virus was over 50 µM.

With `C[C@@]1(O)[C@H](O)[C@@H](CO)O[C@H]1c1cc(-c2ncco2)c2c(N)ncnn12`, the CC50 in data set [1] is 35.7 µM. In addition, the EC50 with Hepatitis C virus was found to be 1.8 µM.

In data set [1], `C[C@@]1(O)[C@H](O)[C@@H](CO)O[C@H]1c1c(F)cc2c(N)ncnn12` yielded a CC50 of over 100 µM. Moreover, in the data set with Hepatitis C virus, the 50% effective concentration (EC50) is over 50 µM.

Compound `C[C@@]1(O)[C@H](O)[C@@H](CO)O[C@H]1c1cnc2c(N)nc(F)nn12` came in with a CC50 in data set [1] of over 100 µM. The EC50 with Hepatitis C virus is over 50 µM.

Turning to `C[C@@]1(O)[C@H](O)[C@@H](CO)O[C@H]1c1cc(Cl)c2c(N)ncnn12`, in data set [1], the midpoint of cytotoxicity, the CC50, lay at 6.5 µM. For the same compound, in the data set with Hepatitis C virus, the EC50 worked out at 0.26 µM.

Consider `C[C@@]1(O)[C@H](O)[C@@H](CO)O[C@H]1c1cnc2c(N)nc(Cl)nn12`, for which the 50% cytotoxic concentration (CC50) in data set [1] is over 100 µM. Besides, the 50% effective concentration (EC50) in the data set on Hepatitis C virus is over 50 µM.
